Columns and labels:
Type in all cases: in vivo
Abutilon theophrasti = test: Test Example 4: herbicidal effect by application to foliage (diluvial soil, plastic box); details: for M (Abutilon theophrasti) herbicidal effect grade: foliage application, 320 g/ha
Outline: (§1)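 Plants were grown in sterilized diluvial soil in a greenhouse at 25-30° C for 14 days, then sprayed on stems and leaves with water-diluted emulsion formulation at set rates in g/ha. Weed control and crop injury were scored 3 weeks after treatment on a 0-5 herbicidal-ratio scale, from 0 (≤5%) to 5 (≥90%).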

Lolium multiflorum Lam. = test: as above; details: for K (Lolium multiflorum Lam.) herbicidal effect grade: foliage application, 320 g/ha
Outline: as §1

Setaria viridis = test: as above; details: for G (Setaria viridis) herbicidal effect grade: foliage application, 320 g/ha
Outline: as §1

Veronica persica = test: as above; details: for R (Veronica persica) herbicidal effect grade: foliage application, 320 g/ha
Outline: as §1

Digitaria ciliaris = test: as above; details: for F (Digitaria ciliaris) herbicidal effect grade: foliage application, 320 g/ha
Outline: as §1

Chenopodium album = test: as above; details: for O (Chenopodium album) herbicidal effect grade: foliage application, 320 g/ha
Outline: as §1

Alopecurus myosuroides = test: as above; details: for J (Alopecurus myosuroides) herbicidal effect grade: foliage application, 320 g/ha
Outline: as §1

Apera spica-venti. = test: as above; details: for L (Apera spica-venti.) herbicidal effect grade: foliage application, 320 g/ha
Outline: as §1

Stellaria media = test: as above; details: for P (Stellaria media) herbicidal effect grade: foliage application, 320 g/ha
Outline: as §1

Avena fatua = test: as above; details: for I (Avena fatua) herbicidal effect grade: foliage application, 320 g/ha
Outline: as §1

[1] = system: Echinochloa crus-galli var. crus-galli; test: as above; details: for H (Echinochloa crus-galli var. crus-galli) herbicidal effect grade: foliage application, 320 g/ha
Outline: as §1

Galium spurium = test: as above; details: for Q (Galium spurium) herbicidal effect grade: foliage application, 320 g/ha
Outline: as §1

Amaranthus retroflexus = test: as above; details: for N (Amaranthus retroflexus) herbicidal effect grade: foliage application, 320 g/ha
Outline: as §1

Triticum aestivum = test: Test Example 4: effect on crop by application to foliage (diluvial soil, plastic box); details: for e (Triticum aestivum) effect on crop grade: foliage application, 320 g/ha
Outline: as §1

Brassica campestris L. = test: as above; details: for g (Brassica campestris L.) effect on crop grade: foliage application, 320 g/ha
Outline: as §1

[2] = system: directly sowed Oryza sativa; test: as above; details: for d (directly sowed Oryza sativa) effect on crop grade: foliage application, 320 g/ha
Outline: as §1

[3] = system: Beta vulgaris ssp. vulgaris; test: as above; details: for f (Beta vulgaris ssp. vulgaris) effect on crop grade: foliage application, 320 g/ha
Outline: as §1

Glycine max = test: as above; details: for c (Glycine max) effect on crop grade: foliage application, 320 g/ha
Outline: as §1

Zea mays = test: as above; details: for b (Zea mays) effect on crop grade: foliage application, 320 g/ha
Outline: as §1

Scirpus juncoides = test: Test Example 1: herbicidal activity, application before weed generation in submerged conditions; details: Application herbicide amount 320 g/ha; Seventeenth Table
Outline: (§2)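 Pre-emergence application to water surface of submerged pots (4 cm depth, alluvial soil) on sowing day, with 2.5-leaf rice transplanted; emulsion diluted to g/ha rates. Grown in greenhouse at 25–30 °C; 0–5 herbicidal/crop-effect score after three weeks.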

[4] = system: Echinochloa oryzacola Vasing.; test: as above; details: Application herbicide amount 320 g/ha; Seventeenth Table
Outline: as §2

Monochoria vaginalis = test: as above; details: Application herbicide amount 320 g/ha; Seventeenth Table
Outline: as §2

[5] = application to foliage, application herbicide amount 320 g/ha

SMILES | B: Scirpus juncoides (herbicidal effect grade) (Scirpus juncoides) | A: Echinochloa oryzicola Vasing. (herbicidal effect grade) [4] | C: Monochoria vaginalis (herbicidal effect grade) (Monochoria vaginalis) | M (Abutilon theophrasti) herbicidal effect grade (Abutilon theophrasti) | K (Lolium multiflorum Lam.) herbicidal effect grade (Lolium multiflorum Lam.) | G (Setaria viridis) herbicidal effect grade (Setaria viridis) | R (Veronica persica) herbicidal effect grade (Veronica persica) | F (Digitaria ciliaris) herbicidal effect grade (Digitaria ciliaris) | O (Chenopodium album) herbicidal effect grade (Chenopodium album) | J (Alopecurus myosuroides) herbicidal effect grade (Alopecurus myosuroides) | L (Apera spica-venti.) herbicidal effect grade (Apera spica-venti.) | P (Stellaria media) herbicidal effect grade (Stellaria media) | I (Avena fatua) herbicidal effect grade (Avena fatua) | H (Echinochloa crus-galli var. crus-galli) herbicidal effect grade [1] | Q (Galium spurium) herbicidal effect grade (Galium spurium) | N (Amaranthus retroflexus) herbicidal effect grade (Amaranthus retroflexus) | e (Triticum aestivum) effect on crop grade (Triticum aestivum) | g (Brassica campestris L.) effect on crop grade (Brassica campestris L.) | d (directly sowed Oryza sativa) effect on crop grade [2] | f (Beta vulgaris ssp. vulgaris) effect on crop grade [3] | other results
Cn1nnnc1NC(=O)c1ccc(C(F)(F)F)n2cnnc12 [2-001] | 3 (Herbicidal ratio of 40% or more and less than 70%) | 2 (Herbicidal ratio of 20% or more and less than 40%) | 4 (Herbicidal ratio of 70% or more and less than 90%) | – | – | – | – | – | – | – | – | – | – | – | – | – | – | – | – | – | M: herbicidal effect on Abutilon theophrasti (Abutilon theophrasti; [5]): 5 (Herbicidal ratio of 90% or more (almost completely withered)); K: herbicidal effect on Lolium multiflorum Lam. (Lolium multiflorum Lam.; [5]): 1 (Herbicidal ratio of 5% or more and less than 20%); G: herbicidal effect on Setaria viridis (Setaria viridis; [5]): 0 (Herbicidal ratio of 5% or less (almost no effect)); R: herbicidal effect on Veronica persica (Veronica persica; [5]): 5 (Herbicidal ratio of 90% or more (almost completely withered)); F: herbicidal effect on Digitaria ciliaris (Digitaria ciliaris; [5]): 3 (Herbicidal ratio of 40% or more and less than 70%); O: herbicidal effect on Chenopodium album (Chenopodium album; [5]): 5 (Herbicidal ratio of 90% or more (almost completely withered)); J: herbicidal effect on Alopecurus myosuroides (Alopecurus myosuroides; [5]): 0 (Herbicidal ratio of 5% or less (almost no effect)); L: herbicidal effect on Apera spica-venti. (Apera spica-venti.; [5]): 0 (Herbicidal ratio of 5% or less (almost no effect)); P: herbicidal effect on Stellaria media (Stellaria media; [5]): 5 (Herbicidal ratio of 90% or more (almost completely withered)); I: herbicidal effect on Avena fatua (Avena fatua; [5]): 1 (Herbicidal ratio of 5% or more and less than 20%); H: herbicidal effect on Echinochloa crus-galli var. crus-galli [1, 5]: 4 (Herbicidal ratio of 70% or more and less than 90%); Q: herbicidal effect on Galium spurium (Galium spurium; [5]): 4 (Herbicidal ratio of 70% or more and less than 90%); N: herbicidal effect on Amaranthus retroflexus (Amaranthus retroflexus; [5]): 5 (Herbicidal ratio of 90% or more (almost completely withered)); e: effect on crop, Triticum aestivum (Triticum aestivum; [5]): 0 (Herbicidal ratio of 5% or less (almost no effect)); g: effect on crop, Brassica campestris L. (Brassica campestris L.; [5]): 4 (Herbicidal ratio of 70% or more and less than 90%); b: effect on crop, directly sowed Oryza sativa [2, 5]: 0 (Herbicidal ratio of 5% or less (almost no effect)); f: effect on crop, Beta vulgaris ssp. vulgaris [3, 5]: 5 (Herbicidal ratio of 90% or more (almost completely withered)); d: effect on crop, Glycine max (Glycine max; [5]): 2 (Herbicidal ratio of 20% or more and less than 40%); c: effect on crop, Zea mays (Zea mays; [5]): 0 (Herbicidal ratio of 5% or less (almost no effect))
CCC[S+]([O-])c1nnc2c(C(=O)Nc3nnnn3C)ccc(C(F)(F)F)n12 (stereo not drawn) [2-069] | 5 (Herbicidal ratio of 90% or more (almost completely withered)) | 5 (Herbicidal ratio of 90% or more (almost completely withered)) | 5 (Herbicidal ratio of 90% or more (almost completely withered)) | 5 (Herbicidal ratio of 90% or more (almost completely withered)) | 3 (Herbicidal ratio of 40% or more and less than 70%) | 5 (Herbicidal ratio of 90% or more (almost completely withered)) | 5 (Herbicidal ratio of 90% or more (almost completely withered)) | 5 (Herbicidal ratio of 90% or more (almost completely withered)) | 5 (Herbicidal ratio of 90% or more (almost completely withered)) | 3 (Herbicidal ratio of 40% or more and less than 70%) | 4 (Herbicidal ratio of 70% or more and less than 90%) | 5 (Herbicidal ratio of 90% or more (almost completely withered)) | 5 (Herbicidal ratio of 90% or more (almost completely withered)) | 5 (Herbicidal ratio of 90% or more (almost completely withered)) | 4 (Herbicidal ratio of 70% or more and less than 90%) | 5 (Herbicidal ratio of 90% or more (almost completely withered)) | 3 (Herbicidal ratio of 40% or more and less than 70%) | 5 (Herbicidal ratio of 90% or more (almost completely withered)) | 4 (Herbicidal ratio of 70% or more and less than 90%) | 5 (Herbicidal ratio of 90% or more (almost completely withered)) | c (Glycine max) effect on crop grade (Glycine max): 4 (Herbicidal ratio of 70% or more and less than 90%); b (Zea mays) effect on crop grade (Zea mays): 5 (Herbicidal ratio of 90% or more (almost completely withered))
Cn1nnnc1NC(=O)c1ccc(C(F)(F)F)n2c(-c3cccs3)nnc12 [2-061] | 5 (Herbicidal ratio of 90% or more (almost completely withered)) | 5 (Herbicidal ratio of 90% or more (almost completely withered)) | 5 (Herbicidal ratio of 90% or more (almost completely withered)) | 4 (Herbicidal ratio of 70% or more and less than 90%) | 4 (Herbicidal ratio of 70% or more and less than 90%) | 5 (Herbicidal ratio of 90% or more (almost completely withered)) | 5 (Herbicidal ratio of 90% or more (almost completely withered)) | 5 (Herbicidal ratio of 90% or more (almost completely withered)) | 5 (Herbicidal ratio of 90% or more (almost completely withered)) | 3 (Herbicidal ratio of 40% or more and less than 70%) | 3 (Herbicidal ratio of 40% or more and less than 70%) | 5 (Herbicidal ratio of 90% or more (almost completely withered)) | 4 (Herbicidal ratio of 70% or more and less than 90%) | 5 (Herbicidal ratio of 90% or more (almost completely withered)) | 3 (Herbicidal ratio of 40% or more and less than 70%) | 5 (Herbicidal ratio of 90% or more (almost completely withered)) | 3 (Herbicidal ratio of 40% or more and less than 70%) | 4 (Herbicidal ratio of 70% or more and less than 90%) | 4 (Herbicidal ratio of 70% or more and less than 90%) | 5 (Herbicidal ratio of 90% or more (almost completely withered)) | c (Glycine max) effect on crop grade (Glycine max): 3 (Herbicidal ratio of 40% or more and less than 70%); b (Zea mays) effect on crop grade (Zea mays): 5 (Herbicidal ratio of 90% or more (almost completely withered))

Source: patent US9708314B2, “Heterocyclic amide compound” (NISSAN CHEMICAL INDUSTRIES, LTD., priority 2013, dated 2017)
